Holding throughout (type): cell-based
Data set [1] has as its system MDA-MB-231 cells. The data set is described as follows: Drug response, 2D controls on tissue culture plastic. Particulars: for EC50 / IC50: 2D culture. How it is done: MDA-MB-231 cells were trypsinized, counted, and seeded in a fibronectin coated (10 μg/mL), 96 well plate at a density of 5,000 cells/well in serum-containing medium. To measure the drug response of cells independent of encapsulation, pre-encapsulation conditions were replicated by allowing the cells to adhere overnight followed by culture in serum-free medium for 48 hr. DOX, PAC, and 5-FU were reconstituted in DMSO to a stock concentration of 172.4, 58.5, and 384.6 mM, respectively. Stock solutions were diluted in medium to a range of concentrations: DOX (0.001, 0.01, 0.1, 1, 10, 100, or 1000 μM), PAC (0.001, 0.01, 0.1, 1, 10, or 100 μM), and 5-FU (0.001, 0.01, 0.1, 1, 10, 100, or 1000 μM) and added to the MDA-MB-231 cells for 48 hr (n=6 wells per concentration). 46 At the highest drug concentration tested, the DMSO concentration remained […]; thus, 0.1% (v/v) DMSO was used as a vehicle control in 2D studies. Cells were rinsed in PBS twice to remove excess medium, followed by labeling with a Live/Dead® cell viability kit (Invitrogen). Only live cells were labeled, as dead cells detached from the wells and were washed away. Labeled cells were imaged using the proper filter cubes and analyzed using FIJI software (NIH).
(§1) For statistical comparison between viability values, distribution normality was assessed via quantification of skewness and kurtosis, where values within ±2 indicated a normal distribution. Equal variance among groups was additionally evaluated. A one-way analysis of variance (ANOVA) with a post-hoc Tukey-Kramer test was implemented to determine statistical significance between multiple groups. Unless otherwise Indicated, p<0.05 was considered statistically significant. Origin Lab software was used to fit DOX viability data. A nonlinear, growth/sigmoidal curve fit using a dose response function with a Levenberg Marquardt iteration algorithm was performed and allowed to converge for all conditions with a chi-square tolerance of 1E-9.
The response of MDA-MB-231 cells cultured on standard tissue culture plastic (2D) to DOX, PAC, and 5-FU was quantified as control. MDA-MB-231 cells were cultured on 96 well plates and serum-starved for 48 hr, following the same protocol used for encapsulation for ease of comparison. The MDA-MB-231 cells were exposed to drug-containing medium at the following concentrations (DOX: 0.001, 0.01, 0.1, 1, 10, 100, or 1000 μM; PAC: 0.001, 0.01, 0.1, 1, 10, or 100 μM; and 5-FU: 0.001, 0.01, 0.1, 1, 10, 100, or 1000 μM) for 48 hr. The live MDA-MB-231 cells were fluorescently labeled, imaged, and quantified (FIG. 1).

Data set [2] concerns MDA-MB-231 cells. Briefly: Drug response, cells cultured in hydrogels. Also noted: viability, times higher in cellular dormancy than growth state: dose or concentration left out as unconfirmed. The settings on record: for viability at 4000 µM / viability at 7000 µM / viability at 10000 µM / EC50 / IC50 / viability at 50 µM / viability at 550 µM / viability at 10 µM / viability at 1000 µM / viability at 100 µM: Homo sapiens; for viability at 4000 µM: 4 mM; for viability at 4000 µM / viability at 7000 µM / viability at 10000 µM / viability at 50 µM / viability at 550 µM / viability at 10 µM / viability at 1000 µM / viability at 100 µM: read-out: cell viability (normalized to vehicle control); for viability at 7000 µM: 7 mM; for viability at 10000 µM: 10 mM; for viability at 50 µM: 0.05 mM; for viability at 550 µM: 0.55 mM; for viability at 10 µM: 0.01 mM; for viability at 100 µM: 0.10 mM. As for the experimental part:
DOX, PAC, and 5-FU stocks were diluted in medium to desired concentrations: DOX (0.001, 0.01, 0.05, 0.1, 0.55, 1, or 2 mM), PAC (0.05, 0.1, 0.55, or 1 mM), and 5-FU (1.0, 4.0, 7.0, or 10 mM).
At the highest concentrations tested, the DMSO concentration ranged between 1-2% (v/v) for all drugs used. […] Thus, all vehicle controls used in this study contained medium with 1% (v/v) DMSO. […] 15 days post encapsulation, cell-laden hydrogels were rinsed with PBS and transferred to a new well plate for drug exposure for 48 hr. The hydrogels were rinsed twice with PBS to remove excess medium, followed by labeling with a Live/Dead® cell viability kit (Invitrogen) in PBS for 30 min, according to the manufacturer's instructions. The hydrogels were rinsed with PBS for 10 min to remove excess stain. Labeled hydrogels were placed on coverslips and imaged using structured Illumination on a Zeiss AxioObserver Z1 inverted fluorescent microscope as previously described. 32-34 Fluorescent z-stacks (z-height: 150 μm) were acquired approximately at the center of the hydrogels, between the bottom and top surfaces of each sample, and analyzed using FIJI software (NIH). Due to the red autofluorescence of DOX, only the live cells were imaged for viability studies. To quantify cell viability, the number of live cells was normalized to the number of live cells measured in the vehicle control. A minimum of 6 hydrogels were analyzed for each condition.
as §1

Data set [3] has as its system MDA-MB-231 cells. Briefly: Doxorubicin accumulation and nuclear localization. Particulars: for nuclear to cytoplasmic (N/C) ratio: 48 hr. How it is done: Cells were encapsulated in hydrogel formulations that induced growth, balanced dormancy, or cellular dormancy for 15 days as described above. The medium was replaced with DOX-containing medium at a concentration of 0.05 mM. Four hydrogels for each formulation were imaged at varying time points (1, 2, 3, 5, 12, 20, 24, 48 hr). The mean cellular fluorescence intensity was measured and plotted against time to quantify intracellular DOX accumulation. To calculate the nuclear to cytoplasmic ratio, the fluorescence intensity measurements of the cytoplasmic and nuclear regions were acquired for each cell, with at least 70 cells measured per image. Due to its mechanism of action, DOX is known to primarily localize to the nucleus of DOX-sensitive cell lines. Studies quantifying DOX localization in multiple cell lines show alignment between high fluorescence intensity and the nucleus. Additionally, nuclear location was approximated based on areas of high fluorescence intensity with distinct morphological features (size, location).

The mark [4] stands for this setting: MDA-MB-231, 48 h, balanced dormancy, 48 hr.
Where [5] appears, read: MDA-MB-231, 48 h, cellular dormancy, 48 hr.
Where [6] appears, read: MDA-MB-231, 48 h, growth state, 48 hr.
Where [7] appears, read: Homo sapiens, MDA-MB-231, 48 hr.
The mark [8] stands for this setting: Homo sapiens, MDA-MB-231, 2D, 48 hr, read-out: cell viability.
[9] abbreviates: MDA-MB-231, 48 h, balanced dormancy hydrogel, 48 hr.
Setting [10] is: MDA-MB-231, 48 h, cellular dormancy hydrogel, 48 hr.
Where [11] appears, read: MDA-MB-231, 48 h, growth state hydrogel, 48 hr.
Setting [12] is: MDA-MB-231, range over the three hydrogel formulations.

Read-outs that look alike come from different tables or passages of the source.

This is an account of results in patent US12077741B2, “Crosslinked hydrogel compositions for regulating states of encapsulated cancer cells” (University Of Delaware, priority 2017, dated 2024).

Turning to `O=c1[nH]cc(F)c(=O)[nH]1` [5-FU, 5-fluorouracil], in the data set with MDA-MB-231 cells [1] (Homo sapiens, MDA-MB-231, 48 h), the EC50 is 1.81 µM. Besides, the viability at 1000 µM in the data set on MDA-MB-231 cells [1] (Homo sapiens, MDA-MB-231, 2D, 1 mM, 48 hr, read-out: cell viability) was 65 ± 3%. Besides, the viability at 4000 µM with MDA-MB-231 cells [2] (setting [4]) was determined as 92 ± 4%; in the data set on MDA-MB-231 cells [2] (setting [5]) it was 100 ± 6%. Further, the viability at 7000 µM in the data set with MDA-MB-231 cells [2] (MDA-MB-231, 48 h, both dormant states, 48 hr) was greater than 90%; in the data set on MDA-MB-231 cells [2] (setting [6]) it was 80 ± 2%. In addition, the viability at 10000 µM is 99 ± 4% in the data set with MDA-MB-231 cells [2] (setting [5]); greater than 93% in the data set on MDA-MB-231 cells [2] (MDA-MB-231, 48 h, either dormant state, 48 hr); 75 ± 5% in the data set on MDA-MB-231 cells [2] (setting [6]). In addition, in the data set with MDA-MB-231 cells [2] (dormant cells, all concentrations tested), the “cell viability (normalized to vehicle control)” value was greater than 90%.

Regarding `C[S+](C)[O-]` [DMSO, Dimethyl Sulfoxide], in the data set on MDA-MB-231 cells [2] (1 or 2% (v/v), growth hydrogel formulation, 48 hr), the “cell viability vs serum-containing medium” value is given as “no significant differences”. Moreover, the cytotoxicity entry with MDA-MB-231 cells [2] (18%, 26% (v/v)) is reported as “cytotoxic”.

`COc1cccc2c1C(=O)c1c(O)c3c(c(O)c1C2=O)C[C@@](O)(C(=O)CO)C[C@@H]3O[C@H]1C[C@H](N)[C@H](O)[C@H](C)O1` [DOX, doxorubicin]: the EC50 in the data set on MDA-MB-231 cells [1] (Homo sapiens, MDA-MB-231, 48 h) is 0.006 µM; in the data set with MDA-MB-231 cells [2] (setting [9]), 67.6 µM; in the data set with MDA-MB-231 cells [2] (setting [10]) it was 83.3 µM; in the data set on MDA-MB-231 cells [2] (setting [11]), 43.6 µM; with MDA-MB-231 cells [2] (setting [12]) it was 47.4 to 83.3 µM. The IC50 in the data set with MDA-MB-231 cells [1] (setting [7]) was 0.007 µM; with MDA-MB-231 cells [2] (setting [9]), 58.3 µM; with MDA-MB-231 cells [2] (setting [10]), 79.9 µM; in the data set on MDA-MB-231 cells [2] (setting [11]), 43.6 µM; in the data set on MDA-MB-231 cells [2] (setting [12]), 43.6 to 79.9 µM. Moreover, in the data set with MDA-MB-231 cells [1] (setting [8]), the viability at 100 µM came to 1%. The “fold decrease in nuclear localization, dormant vs growth state” value with MDA-MB-231 cells [3] came to 1.5 fold. The “intracellular accumulation (mean fluorescence intensity) between the three phenotypic states” value in the data set on MDA-MB-231 cells [3] (0.05 mM, over 48 hr) is listed as “no statistically significant differences”. Moreover, the “nuclear to cytoplasmic (N/C) ratio” value with MDA-MB-231 cells [3] (balanced dormancy, 0.05 mM) came to 2.3±0.8; in the data set with MDA-MB-231 cells [3] (cellular dormancy, 0.05 mM), 2.4±1.0; in the data set with MDA-MB-231 cells [3] (growth state, 0.05 mM), 3.5±2.3. In the data set on MDA-MB-231 cells [2], the “fold increase in IC50, balanced dormancy vs growth state” value worked out at 1.3 fold. The “fold increase in IC50, cellular dormancy vs growth state” value in the data set on MDA-MB-231 cells [2] is listed as 1.8 fold. Also, the “viability, times higher in cellular dormancy than growth state” value with MDA-MB-231 cells [2] (0.55) is reported as 4-6 times. Further, the viability at 50 µM in the data set on MDA-MB-231 cells [2] (setting [4]) is 57 ± 2%; in the data set on MDA-MB-231 cells [2] (setting [5]), 62 ± 5%; in the data set on MDA-MB-231 cells [2] (setting [6]), 44 ± 3%. The viability at 550 µM in the data set with MDA-MB-231 cells [2] (setting [4]) turned out to be 16 ± 1%; in the data set on MDA-MB-231 cells [2] (setting [5]) it was 24 ± 3%; with MDA-MB-231 cells [2] (setting [6]) it was 5 ± 1%. Also, the viability at 10 µM was 91 ± 12% in the data set on MDA-MB-231 cells [2] (setting [5]) and 82 ± 1% in the data set on MDA-MB-231 cells [2] (setting [6]).

As for `CC(=O)O[C@H]1C(=O)[C@@]2(C)[C@H]([C@H](OC(=O)c3ccccc3)[C@]3(O)C[C@H](OC(=O)[C@H](O)[C@@H](NC(=O)c4ccccc4)c4ccccc4)C(C)=C1C3(C)C)[C@]1(OC(C)=O)CO[C@@H]1C[C@@H]2O` [PAC, paclitaxel], the EC50 in the data set on MDA-MB-231 cells [1] (48 hr) was 0.761 µM; in the data set with MDA-MB-231 cells [1] (Homo sapiens, MDA-MB-231, 48 h) it was 0.716 µM. In addition, the IC50 with MDA-MB-231 cells [1] (setting [7]) amounted to 0.651 µM. Moreover, the viability at 0.01 µM in the data set on MDA-MB-231 cells [1] (Homo sapiens, MDA-MB-231, 2D, 0.01 μM, 48 hr, read-out: cell viability) came to 94 ± 13%. The values for the viability at 100 µM in the data set with MDA-MB-231 cells [1] (setting [8]), in the data set on MDA-MB-231 cells [2] (setting [5]) and with MDA-MB-231 cells [2] (setting [6]) were 6 ± 2%, 91 ± 6% and 55 ± 4%, respectively. The figures for the viability at 550 µM in the data set with MDA-MB-231 cells [2] (setting [4]), in the data set with MDA-MB-231 cells [2] (setting [5]) and in the data set on MDA-MB-231 cells [2] (setting [6]) were 86 ± 5%, 84 ± 5% and 51 ± 4%, respectively. Besides, the viability at 1000 µM in the data set on MDA-MB-231 cells [2] (MDA-MB-231, 48 h, balanced dormancy, 1.00 mM, 48 hr) is 72 ± 3%; with MDA-MB-231 cells [2] (MDA-MB-231, 48 h, cellular dormancy, 1 mM, 48 hr), 75 ± 3%; in the data set on MDA-MB-231 cells [2] (MDA-MB-231, 48 h, dormant cells (either state), 1 mM, 48 hr), greater than 72%; in the data set with MDA-MB-231 cells [2] (MDA-MB-231, 48 h, growth state, 1 mM, 48 hr), 39 ± 4%.
